Data set [1] in a line: PMB pharmacokinetics after a single subcutaneous dose in neutropenic thigh-infected mice (two-compartment model). The following applies: for Tmax: neutropenic mice infected with 10^6 CFU/thigh, n = 3 per time point, read-out: time to peak (Tmax). In kind it is in vivo. As to the method: Animal experiments were carried out according to the EC Directive 2010/63/EU. They were approved by the local ethics committee (COMETHEA) and registered by the French Ministry of Higher Education and Research (approval numbers: 2019022216097190 and 2017072415099072). Five-week-old male Swiss RjOrl mice (n = 296) weighing 34 ± 2 g (mean ± standard deviation [SD]) were obtained from Janvier Labs (Saint-Berthevin, France). All animals were acclimatized in ventilated racks in a temperature-regulated environment with a 12 h light-dark cycle, with free access to food and water for a minimum of 5 days before the beginning of the experiment. Neutropenia was induced by intraperitoneal administrations of cyclophosphamide at 150 and 100 mg/kg, 4 days and 1 day prior to experimental infection, respectively ([Landersdorfer et al., 2018]). Thigh infection was induced by intramuscular administration of 0.1 ml of a bacterial suspension of 10^6, 10^7 or 10^8 CFU/ml (corresponding to 10^5, 10^6 and 10^7 CFU/thigh, respectively), into one of the posterior thigh muscles. Thus, three groups of mice were distinguished according to the inoculum injected (n = 76, 146 and 74 for 10^5, 10^6 and 10^7 CFU/thigh, respectively) Each group was divided into two subgroups: treated (n = 48, 116 and 45 for 10^5, 10^6 and 10^7 CFU/thigh, respectively) and control mice (n = 28, 30 and 29 for 10^5, 10^6 and 10^7 CFU/thigh, respectively).
Two hours after bacterial inoculation, mice received either a single subcutaneous administration of PMB (1, 15 or 40 mg/kg for mice infected with 10^6 and 10^7 CFU/thigh, and 15 or 40 mg/kg for mice infected with 10^5 CFU/thigh), or a subcutaneous administration of saline solution (control group).
The PK of PMB was determined in neutropenic mice infected with the bacterial inoculum size of 10^6 CFU/thigh (n = 56). Mice were anesthetized by isoflurane (AbbVie, Rungis, France) inhalation (3%) for 5 min at each sampling time. Blood samples were collected by intracardiac puncture into heparinized tubes up to 24 h after PMB administration for a total of 7 time points per dose level (n = 3 animals per time point). Plasma was separated from the whole blood after centrifugation at 4,000 rpm for 10 min at 4°C and divided into two samples. The first sample was used to determine total PMB concentrations and the second one (0.15 ml) was ultrafiltered (4000 rpm for 30 min at room temperature) using Centrifree® ultrafiltration devices from Millipore (Merck KGaA) to determine unbound PMB concentrations and consequently protein binding. The non-specific binding of PMB to the membrane of the Centrifree® ultrafiltration devices ([Sader et al., 2012]) was determined by ultrafiltration of PMB solutions in phosphate buffer (pH7.2) at concentrations ranging from 0.2 to 7.5 mg/L and was used to correct ultrafiltrate concentrations. Plasma samples and ultrafiltrates were stored at −20°C until further analysis. Total and unbound PMB concentrations were determined by a liquid chromatography tandem mass spectrometry (LS-MS/MS) method (Supplemental Material).
A PKPD model was developed in two steps to quantify the exposure-effect relationship of PMB in infected mice. First, time courses of total and unbound PMB concentrations were modeled and then, PK parameters were fixed during development of the PD part of the PKPD model.
Different structural models including one, two or three compartments, linear, nonlinear (Michaelis-Menten) or parallel linear/nonlinear elimination were evaluated to describe PK data. Models with linear and nonlinear absorption were also tested. Additive, proportional and exponential residual error models were explored.
Model selection was based on objective function value (OFV) and goodness of fit (GOF) plots. When two models were nested, a decrease in OFV of at least 3.84 (chi square 1df p = 0.05) was needed to select the most complex model. […]

The conditions of data set [2]: ultracentrifugation, ref Landersdorfer et al., 2018, cited from earlier work. An excerpt: This discrepancy may be explained by differences in methodology. We used ultra-filtration after correction for non-specific adsorption on membranes to determine unbound fraction individually in infected mice, whereas the previous study used ultracentrifugation and pooled plasma sampled drawn from infected mi ...

Where [3] appears, read: final PK model, estimate (%RSE).

Structures can show the parent of a compound that is named as a salt. Where two headings read alike, the source gives them in different places. Bridge positions count the residues as written; N and C are the ends. Square brackets hold non-standard residues; d marks the D form. Peptide text beside a SMILES is read from it. * marks the point of attachment. X1 = CC[C@H](C)CCCCC(=O)*; Dab = NCC[C@H](N)C(=O)O

Broadly, the Tmax is the time from dosing to the highest level. Consider `CC[C@H](C)CCCCC(=O)N[C@@H](CCN)C(=O)N[C@H](C(=O)N[C@@H](CCN)C(=O)N[C@H]1CCNC(=O)[C@H]([C@@H](C)O)NC(=O)[C@H](CCN)NC(=O)[C@H](CCN)NC(=O)[C@H](CC(C)C)NC(=O)[C@@H](Cc2ccccc2)NC(=O)[C@H](CCN)NC1=O)[C@@H](C)O` [PMB, Polymyxin B sulfate] (X1-[Dab]T[Dab][Dab][Dab][dF]L[Dab][Dab]T; lactam 4-C), for which the “increase of total Cmax when dose increased from 1 to 40 mg/kg” value in data set [1] (SC, plasma, infected mice) is 15 fold. Moreover, in data set [1] (final PK model, saturable SC absorption, estimate (%RSE), doses 1, 15, 40 mg/kg), the Maximum absorption rate is recorded as 14.7 (10.3) mg/h/kg. The “Amount in the subcutaneous compartment that produces 50% of the maximum absorption rate” value in data set [1] (setting [3]) is 2.24 (41.4) mg/kg. Further, the “Distribution volume of the central compartment” value in data set [1] (setting [3]) was 0.740 (16.7) L/kg. In addition, the “Distribution volume of the peripheral compartment” value in data set [1] (setting [3]) is on record as 0.743 (16.4) L/kg. Further, the Intercompartmental clearance in data set [1] (setting [3]) was 0.315 (27.3) L/h/kg. Also, the Cmax in data set [1] (male, Swiss RjOrl, mouse, plasma, sc, 1 mg/kg, plasma, single SC dose 1 mg/kg, mean ± SD, infected mice 10^6 CFU/thigh, LC-MS/MS, SD, read-out: Total PMB peak concentration (Cmax)) is 920 ± 140 ng/mL; in data set [1] (male, Swiss RjOrl, mouse, plasma, sc, 40 mg/kg, plasma, single SC dose 40 mg/kg, mean ± SD, infected mice 10^6 CFU/thigh, LC-MS/MS, SD, read-out: Total PMB peak concentration (Cmax)), 13800 ± 810 ng/mL; in data set [1] (male, Swiss RjOrl, mouse, plasma, sc, 40 mg/kg, this study, SC, highest dose 40 mg/kg, read-out: peak concentrations at the highest dose) it was 15000 ng/mL. Besides, in data set [1] (male, Swiss RjOrl, mouse, plasma, sc, final PK model, linear elimination, estimate (%RSE), read-out: Clearance (converted)), the CL/F was 7.28 mL/min/kg. Also, the Tmax in data set [1] (male, Swiss RjOrl, mouse, plasma, single SC dose 1 mg/kg, LC-MS/MS) came out at 0.5 h; in data set [1] (male, Swiss RjOrl, mouse, plasma, single SC dose 40 mg/kg, LC-MS/MS), 2 h. The plasma protein binding in data set [2] (mouse plasma, pooled plasma spiked with PMB) is on record as approximately 90%. The unbound fraction in data set [2] (pooled plasma from infected mice spiked with PMB) is listed as 0.086.

These data come from PMC8966651, “PKPD Modeling of the Inoculum Effect of Acinetobacter baumannii on Polymyxin B in vivo” (Frontiers in Pharmacology, 2022).
